The results in this text go back to patent publication US20230340012A1, “NATURAL AND SYNTHETIC COMPOUNDS FOR TREATING CANCER AND OTHER DISEASES” (PACIFIC ARROW LIMITED, priority 2009, published 2023).

Values after ≈ are worked out from the molar mass of the structure shown.

In data set [1] the test system is Y79 (retinoblastoma). As to the kind of experiment: Inhibition of eye cancer cells Y79 (retinoblastoma), MTT. It is filed as cell-based, human. As to conditions: 2 days. On the procedure: Cells: Human Eye cancer cells Y79 (retinoblastoma) are cultured in RPMI1640 medium supplemented with 20% FCS, glutamine and antibiotics.
Starting cells concentration: 400 K per ml in a 24-well plate.
Drug: Tig-S and Tig-R (100× stock solution in 10%DMSO-90% RPMI-1640).
Drug-treatment: Cells were cultured with or without drug (DMSO control) for 2 days. After Drug-treatment, the quantity of live cells is determined with MTT assay*. With this method, the percentage of cell growth with drugs was determined by comparing to those of no-drug (DMSO) control.
MTT assay. To measure the amount of live cells, MTT (3-[4,5-Dimethylthiazol-2-yl]-2,5-diphenyl-tetrazolium bromide) (0.5 mg/ml) was added to cultures and incubated for an hour. Cells were then collected by centrifugation. The formation of formazan (proportion to live cells activity) in the cells was dissolved with DMSO and the O.D. at 490 nm was measured by an ELISA reader. The MTT level of cells before drug-treatment (T0) and after the drug-treatment (TD) was measured. The % cell-growth (%G) is calculated as: %G = (TD-T0) / (TC-T0) × 100 where TC or TD represent O.D. readings of control or drug-treated cells.
When T0 > TD, then the negative growth (cytotoxicity) is expressed as - % of the control and is calculated as: - %G = (TD-T0) / T0) × 100.

Data set [2] concerns WI38. As to the kind of experiment: MTT assay, normal human lung fibroblast (WI38). It is filed as cell-based. The method, then:
Method: A. Cells • -WI38 is a Normal Lung fibroblast. Cells were grown in MEM medium supplemented with 10% FCS, antibiotics and glutamine. 20 K cells were seeded per well (96-welled plate) for one day before drug-treatment • -ES2 is an Ovary Clear cells carcinoma. Cells were grown in RPMI-1640 medium supplemented with 10% FCS, antibiotics and glutamine. 10 K cells were seeded per well (96-welled plate) for one day before drug-treatment.
B. Drug treatment: • -Drug: Tig-S. stored as 1000x stock solution in DMSO. • -Drug concentration used: from 0.15 - 20 ug/ml. • -Drug-treatment was carried out for 2 days (ES2) or 6 days (WI38). For the 6 days incubation, cells were fed with fresh medium (with drug) on day 3 and 5.
C. At the end of the drug-treatment, cytotoxic test was performed with MTT assay.
In general terms: Tetrazolium dyes change colour on reduction, which living cells bring about.

Data set [3] has as its system cancer cells. As to the kind of experiment: MTT cytotoxic assay of esterification products (Cytotoxicity activity). It is filed as cell-based, human. Summed up: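 Cytotoxicity was read by MTT (Carmichael method, modified), with cells seeded 24 h ahead of treatment. Sixteen human cancer lines spanning bone, lung, bladder, ovary, colon, pancreas, prostate, skin, mouth, kidney, breast, liver, brain, leukemia and cervix were used. Test samples were acyl chloride esterification products of triterpenes, as mixtures or HPLC-purified compounds.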

Where [4] appears, read: esterification products isolated with HPLC, graded strong / moderate / weak.

In the case of `CC=C(C)C(=O)OCC1(C)C(O)CCC2(C)C1CCC1(C)C2CC=C2C3CC(C)(C)C(OC(=O)C(C)=CC)C(O)C3(CO)C(O)CC21C` (centres unmarked) [Tig-S], the “IC50, eye cancer Y79 retinoblastoma” value in data set [1] was found to be 0.1 µg/mL (≈ 0.149 µM). For the same molecule, the “IC50, WI38 cells” value in data set [2] (6 days drug treatment, MTT) turned out to be 1.5 µg/mL (≈ 2.24 µM). Further, the “% of the control cell growth, WI38” value in data set [2] (at 10 ug/ml) was “about 55%”. For the same molecule, in data set [2] (at 20 ug/ml), the “MTT OD as % of the original value, WI38” value was “about 90%” and the “cell loss or death, WI38” value is listed as “about 10%”. In data set [2] (with 10 ug/ml), the “cells died, WI38” value is recorded as 10%.
Turning to “24,28-O-Tigloyl-3β,16α, 21β, 22a, 24β, 28-hexahydroxyolean-12-ene [Tig-R]”, the Cytotoxicity activity entry in data set [3] (setting [4]) is listed as “strong”. Further, the “IC50, eye cancer Y79 retinoblastoma” value in data set [1] was determined as 7.5 µg/mL. In addition, the “IC50 in normal human fibroblast cells (WI38)” value in data set [2] (MTT) is 10 to 15 µg/mL.
As to `CC=C(C)C(=O)OCC1(C)C(O)CCC2(C)C1CCC1(C)C2CC=C2C3CC(C)(C)C(O)C(O)C3(CO)C(O)CC21C` (centres unmarked) [Tig-N], the Cytotoxicity activity entry in data set [3] (setting [4]) and in data set [3] (esterification products of E4A—Tig—N with senecioyl chloride) was “moderate” each time.
